The assay concerns DU145. Description: Colony formation assay, DU145. It is filed as cell-based. Particulars: 1 or 2 µM, vs vehicle. How it is done: This assay was performed as previously described. The DU145 and PC-3 cells were incubated with RP-010 (1 or 2 µM) for 24 h. […], the medium was discarded and cells were trypsinized with 0.25% trypsin, 2.21-mM EDTA, and then harvested, counted, and reseeded in 6-well plates at a low density (500 cell/well). The cells were allowed to form colonies for 10–14 days at 37 °C, with the medium being changed every other day. Subsequently, methanol was used to fix the colonies formed in each plate, followed by staining the colonies with 0.1% crystal violet dye for 30 min. Finally, colonies were viewed and counted under an EVOS microscope (Themo Fisher Scientific, Wayne, MI, USA). The colony formation rate equation was applied for each compound: Colony formation rate = the number of colonies/numbers of seeded cells × 100%.

The structures appear in SMILES notation.

With `COc1ccc(-c2nc3sc4c(c3c(=O)[nH]2)CCCC4)cc1` [RP10], the “Size of the colonies” value is given as “significantly decreased”. Also, the Colony formation entry (p < 0.01) is “significantly decreased”.

The values above are taken from paper PMC6563099, “Novel Thienopyrimidine Derivative, RP-010, Induces β-Catenin Fragmentation and Is Efficacious against Prostate Cancer Cells” (Cancers, 2019).
